Reference: patent US20250325256A1, “LIPID PATCH” (SENSACH AB, priority 2021, published 2025)
Read-outs that look alike come from different tables or passages of the source.

How the values were obtained:
[1] = Passive diffusion extraction of Trp and Kyn; type: in vitro ADME, pig; settings: for Normalized cumulative amount Passive / Flux Passive / Cumulative amount Passive: mean ± SEM
Experimental: Pig skin, purchased from a local abattoir, was gently cleaned post-sacrifice under cold running water. The skin from abdomen or from the inside of the outer ear was used as in vitro skin model. […] Skin samples were then wrapped individually in Parafilm™ and kept at −20° C. for not more than three months until use. Prior to extraction experiments, skin was cut into 4 cm^2 membranes while still being frozen. Prepared skin membranes were then left at ambient environment for 30 minutes to thaw and obtain room temperature. The integrity of each skin membrane was visually inspected against the light in order to ensure that there were no visible damages (holes). Hairs were then further trimmed with scissors and skin was gently rinsed under cold running water.
In order to determine if reverse iontophoresis can enhance the extraction of Trp compared to their passive diffusion extraction, similar experiments were conducted without the current passage. These passive diffusion experiments were conducted using the same horizontal side-by-side cell setup in parallel to reverse iontophoresis experiments in order to ensure identical conditions. In line with reverse iontophoretic experiment, after the 6-hour sampling, subdermal compartment was emptied and experiment was allowed to continue for another 18 hours. Passive diffusion experiments were repeated four times (n=4).
Prior to HPLC-UV analysis, samples were thawed and vortexed.
Anodal, cathodal and passive fluxes of Trp and Kyn were directly calculated from the amount (mol) extracted at each sampling interval and normalized for the surface area available for extraction (0.785 cm^2) and duration of the interval (in hours). The 6-hour flux values were used for the analysis of transport direction as well for comparison between reverse iontophoretic and passive extraction efficiency. The physiochemical properties of both endogenous substances were estimated. In order to compare results, the enhancement ratio (ER) was determined after 6 hours as […]

[2] = for partitioning into the cubic lipid bilayer compared to kynurenine: fully swollen GMO cubic phase; for Kcub/w / log Kcub/w: fully swollen Pn3m cubic phase (GMO/water) vs water; for bilayer/water partitioning, Kcub/w / bilayer/water partitioning, log Kcub/w: fully swollen Pn3m cubic phase (GMO/water), calculated
Experimental: Four concentrations of Trp and Kyn in a range 0.125 mM to 1 mM, corresponding to lipid:Trp(Kyn) ratio in the range 7200:1-900:1, were prepared in Milli-Q water in order to investigate the effect of concertation on the partitioning. The fully swollen cubic phases (˜0.25 g) were prepared by mixing the appropriate amount of GMO with an excess of Milli-Q water (1:1 weight ratio) in a 1.7 mL glass vials and left to equilibrate for 7 days. When samples were equilibrated (typically within 2 days a glass-clear and non-floating cubic phase was formed), each vial was checked between cross polarizers to ensure that no birefringence could be observed. The excess of water was then removed and 500 μL of solution with different concentrations of Trp/Kyn (molar ratio 1:1) were added to each vial. Final samples were allowed to equilibrate with respect to Trp and Kyn partitioning between the lipid bilayer and the aqueous phase. First sampling was performed after one week of equilibration by withdrawing 50 μL of the aqueous phase. Second sampling was performed in identical manner after 2 weeks of equilibration to investigate the time aspect on the partitioning. All samples collected during the partition study were diluted to a final volume 500 μL with Milli-Q water and filtered with a 0.2 μm syringe filters (13 mm PTFE membrane, VWR International, USA) prior to the HPLC-UV analysis. All partition experiments were performed in triplicates.
The lipid bilayer/water partition coefficient, Kbl/w, may be defined as
where [X] is the concentration of an endogenous substance of interest (e.g., Trp and Kyn) in the bilayer and in water. While concertation of a substance in the aqueous phase can easily be determined by a suitable analytical procedure (e.g., HPLC, LC-MS etc.), determination of the concertation in the bilayer requires two assumptions. […] The second assumption is that the concentration of an endogenous substance in the water channels of the cubic phase is the same as in the water bulk phase, which is based on the equilibrium between chemical potentials of endogenous substances in water channels and in the bulk phase. Thus, the partition coefficient may be calculated by rewriting the Eq. 2 as follows
where Vw is the volume of a water solution containing endogenous substance X added to the cubic phase, [X]0w is the initial concentration of an endogenous substance, [X]w is the concentration of endogenous substance in the water phase after equilibration, Vbl is the volume of GMO, Vcube is the volume of water that was added to GMO to form a cubic phase.
The quantification of Trp and Kyn was performed by HPLC-UV system (Agilent 1100 Series, Germany). The chromatographic separation of Trp and Kyn was carried out on 250 mm×4.6 mm Kromasil C18 column with particle size of 5 μm (AkzoNobel, Bellefonte, USA). Endogenous substances were separated by gradient elution using mobile phase A consisting of 10 mM NaH2PO4 (pH 2.8) and mobile phase B consisting of 100% MeOH at 0.9 mL/min flow rate and 40° C. column temperature. […] The total run time was 17 minutes and injection volume was set to 20 μL. Detection of Trp and Kyn was performed at their UV absorbance maxima, at 280 nm and 360 nm, respectively. Stock solutions of 10 mM of Trp and Kyn for calibration curve were prepared in Milli-Q water and kept in the freezer (−20° C.) for no longer than one day after preparation. Calibration standards for calibration curve were analyzed in the range 0.78 μM to 100 μM (R^2>0.999) the same day as the experimental samples.

[3] = Reverse iontophoretic extraction of Trp and Kyn in side-by-side cells; type: in vitro ADME, pig; settings: for Flux at anode / Flux at cathode / Cumulative amount at anode / Cumulative amount at cathode: mean ± SEM
Experimental: Due to the small molecular weight, Trp and Kyn are good candidates for non-invasive monitoring as their passive permeation across the skin membrane is not restricted by the SC's ‘500 Dalton’ rule. Moreover, because of their polar nature (zwitterionic at neutral pH), these compounds are perfect candidates for extraction by reverse iontophoresis. The non-invasive reverse iontophoretic sampling of Trp and Kyn was conducted in vitro using side-by-side cells consisting of two receptor compartments (anodal & cathodal) and a subdermal compartment. Reverse iontophoretic and passive extraction experiments were performed using identical experimental conditions. […] The reverse iontophoretic extraction was performed by application of a constant current 0.3 mA ([…]) for 6 hours in total. Sampling was performed every hour by withdrawing 1 mL of receptor solution and the amount of permeated compound was determined by HPLC-UV. […] The reservoir consists primarily of amino acids and amino acid derivatives originating from proteolysis of filaggrin.
Pig skin, purchased from a local abattoir, was gently cleaned post-sacrifice under cold running water. The skin from abdomen or from the inside of the outer ear was used as in vitro skin model. The hair was trimmed and the skin was dermatomed to a final thickness of 750 μm (Dermatome, Integra LifeSciences, Plainsboro, NJ, USA). Skin samples were then wrapped individually in Parafilm™ and kept at −20° C. for not more than three months until use. Prior to extraction experiments, skin was cut into 4 cm^2 membranes while still being frozen. Prepared skin membranes were then left at ambient environment for 30 minutes to thaw and obtain room temperature. The integrity of each skin membrane was visually inspected against the light in order to ensure that there were no visible damages (holes). Hairs were then further trimmed with scissors and skin was gently rinsed under cold running water.
The Ag/AgCl electrode couple were preferred over platinum because it avoids the sharp decrease in the pH of the solution as their electrochemistry occurs at voltages considerably lower than those required for electrolysis of water. The electrodes were prepared by making a small loop at one of the ends of the silver wire and dipping it into the molten silver chloride in order to coat the loop with AgCl. After cooling, anodal electrodes were prepared by conditioning AgCl coated loops overnight against a platinum wire anode (0.2 mm in diameter, Sigma), at 0.3 mA with 50 mM NaCl as an electrolyte solution resulting in the formation of a layer of silver on the outer surface of the electrodes.
where zp, up, cp are the charge, mobility and concentration of the permeant, ID is the current density (=I/A), F is the Faraday's constant and summation includes all the species in solution that can carry the charge, v is the solvent velocity. Electromigration is a direct cause of current application, which leads to a formation of an electric field across the skin.

[4] = pH 4.0, 24 h amount minus first 6 hours
[5] = pH 7.4, 24 h amount minus first 6 hours
[6] = pH 9.0, 24 h amount minus first 6 hours
[7] = receptor pH 4.0, donor pH 7.4, after 6 h
[8] = receptor pH 7.4, donor pH 7.4, after 6 h
[9] = receptor pH 9.0, donor pH 7.4, after 6 h
[10] = pH 7.4, after 4 hours of iontophoresis
[11] = pH 7.4, after the first hour of current application
[12] = receptor pH 4.0, after 6 hours of iontophoresis
[13] = receptor pH 4.0, iontophoretic vs passive cumulative amount after 6 hours
[14] = receptor pH 7.4, after 6 hours of iontophoresis
[15] = receptor pH 7.4, iontophoretic vs passive cumulative amount after 6 hours
[16] = receptor pH 9.0, after 6 hours of iontophoresis
[17] = receptor pH 9.0, iontophoretic vs passive cumulative amount after 6 hours

N[C@@H](Cc1c[nH]c2ccccc12)C(=O)O [Trp, L-tryptophan]
Normalized cumulative amount Passive [1, 4]: 0.49 ± 0.49 nmol/cm^2 | Ratio (Trp/Kyn) Passive ([1]; pH 4.0, from normalized cumulative amounts): 1.81 | Normalized cumulative amount Passive [1, 5]: 2.87 ± 1.66 nmol/cm^2 | cumulative amount by passive diffusion (QP) ([1]; pH 7.4, after 5 hours): 0.54±0.12 nmol/cm^2 | cumulative amount by passive diffusion (QP) ([1]; pH 7.4, after the first hour): 0.30±0.04 nmol/cm^2 | Ratio (Trp/Kyn) Passive ([1]; pH 7.4, from normalized cumulative amounts): 1.27 | Normalized cumulative amount Passive [1, 6]: 3.50 ± 0.48 nmol/cm^2 | Ratio (Trp/Kyn) Passive ([1]; pH 9.0, from normalized cumulative amounts): 1.22 ± 0.19 | Flux Passive ([1]; receptor pH 4.0, after 6 hours): 0.01 ± 0.01 nmol/(h · cm^2) | Cumulative amount Passive [1, 7]: 0.18±0.18 nmol/cm^2 | Flux Passive ([1]; receptor pH 7.4, after 6 hours): 0.07 ± 0.03 nmol/(h · cm^2) | Cumulative amount Passive [1, 8]: 0.62±0.13 nmol/cm^2 | Flux Passive ([1]; receptor pH 9.0, after 6 hours): 0.10 ± 0.03 nmol/(h · cm^2) | Cumulative amount Passive [1, 9]: 0.72±0.09 nmol/cm^2 | partitioning into the cubic lipid bilayer compared to kynurenine [2]: twice as high | partitioning into the cubic lipid bilayer compared to kynurenine ([2]; listed as tryptophan): approximately twice as high | Kcub/w [2]: 2.2 | log Kcub/w [2]: 0.3 | bilayer/water partitioning, Kcub/w [2]: 3.0 | bilayer/water partitioning, log Kcub/w [2]: 0.5 | cumulative amount extracted towards the cathode (QC) [3, 10]: 3.59±0.43 nmol/cm^2 | cumulative amount extracted to the anode (QA) ([3]; pH 7.4, after 5 hours of current application): 1.03±0.08 nmol/cm^2 | cumulative amount at cathode, times higher than at anode ([3]; pH 7.4, after 6 hours): ~6 | cumulative amount extracted to the anode (QA) [3, 11]: 0.28±0.06 nmol/cm^2 | cumulative amount extracted towards the cathode (QC) [3, 11]: 0.49±0.04 nmol/cm^2 | Flux at anode [3, 12]: 0.35 ± 0.12 nmol/(h · cm^2) | Flux at cathode [3, 12]: 1.03 ± 0.21 nmol/(h · cm^2) | Cumulative amount at anode [3, 7]: 2.01 ± 0.65 nmol/cm^2 | Cumulative amount at cathode [3, 7]: 4.39 ± 0.87 nmol/cm^2 | Ratio Trp/Kyn (after 6 h) ([3]; receptor pH 4.0, from cathode fluxes): 1.01 | Ratio Trp/Kyn (after 6 h) ([3]; receptor pH 4.0, from cumulative amounts at the cathode): 1.35 ± 0.24 | ER Anode [3, 13]: 11 | ER Cathode [3, 13]: 24 | Flux at anode [3, 14]: 0.24 ± 0.07 nmol/(h · cm^2) | Flux at cathode [3, 14]: 2.02 ± 0.19 nmol/(h · cm^2) | Cumulative amount at anode [3, 8]: 1.27±0.13 nmol/cm^2 | Cumulative amount at cathode [3, 8]: 7.36±0.75 nmol/cm^2 | Ratio Trp/Kyn (after 6 h) ([3]; receptor pH 7.4, from cathode fluxes): 1.07 | Ratio Trp/Kyn (after 6 h) ([3]; receptor pH 7.4, from cumulative amounts at the cathode): 1.25 ± 0.03 | ER Anode [3, 15]: 2 | ER Cathode [3, 15]: ~12 | Flux at anode [3, 16]: 0.69 ± 0.23 nmol/(h · cm^2) | Flux at cathode [3, 16]: 2.32 ± 0.15 nmol/(h · cm^2) | Cumulative amount at anode [3, 9]: 1.62 ± 0.26 nmol/cm^2 | Cumulative amount at cathode [3, 9]: 8.15 ± 0.59 nmol/cm^2 | Ratio Trp/Kyn (after 6 h) ([3]; receptor pH 9.0, from cathode fluxes): 1.17 | Ratio Trp/Kyn (after 6 h) ([3]; receptor pH 9.0, from cumulative amounts at the cathode): 1.29 ± 0.03 | ER Anode [3, 17]: 2 | ER Cathode [3, 17]: 11

Nc1ccccc1C(=O)C[C@H](N)C(=O)O [Kyn, L-kynurenine]
Normalized cumulative amount Passive [1, 4]: 0.27 ± 0.27 nmol/cm^2 | Normalized cumulative amount Passive [1, 5]: 2.59 ± 1.50 nmol/cm^2 | Normalized cumulative amount Passive [1, 6]: 3.81 ± 0.93 nmol/cm^2 | Cumulative amount Passive [1, 7]: <LOQ | Cumulative amount Passive [1, 8]: <LOQ | Cumulative amount Passive [1, 9]: <LOQ | Kcub/w [2]: 1.3 | log Kcub/w [2]: 0.1 | bilayer/water partitioning, Kcub/w [2]: 1.5 | bilayer/water partitioning, log Kcub/w [2]: 0.2 | cumulative amount extracted towards the cathode (QC) [3, 10]: 2.50±0.44 nmol/cm^2 | Flux at anode [3, 12]: 0.18 ± 0.09 nmol/(h · cm^2) | Flux at cathode [3, 12]: 0.93 ± 0.23 nmol/(h · cm^2) | Cumulative amount at anode [3, 7]: 0.91 ± 0.44 nmol/cm^2 | Cumulative amount at cathode [3, 7]: 3.76 ± 0.89 nmol/cm^2 | Flux at anode [3, 14]: 0.11 ± 0.08 nmol/(h · cm^2) | Flux at cathode [3, 14]: 1.88 ± 0.18 nmol/(h · cm^2) | Cumulative amount at anode [3, 8]: 0.25 ± 0.17 nmol/cm^2 | Cumulative amount at cathode [3, 8]: 5.97 ± 0.73 nmol/cm^2 | Flux at anode [3, 16]: 0.52 ± 0.23 nmol/(h · cm^2) | Flux at cathode [3, 16]: 1.99 ± 0.16 nmol/(h · cm^2) | Cumulative amount at anode [3, 9]: 0.64 ± 0.27 nmol/cm^2 | Cumulative amount at cathode [3, 9]: 6.38 ± 0.62 nmol/cm^2
